Experimental data from patent US9645154B2, “Method for detecting cancer cell” (ARKRAY, Inc., priority 2010, dated 2017).

Columns and labels:
Type in all cases: cell-based
[1] = test system: human prostate cancer cells (PC3); experiment: Labeled sugar incorporation, fluorescence microscopy image analysis (positive rate); conditions: hemolyzed, 10 mM, 5 min, 23° C., threshold value 880
Description: (§1) The number of the cells was counted for each cell line using a hemacytometer in accordance with the conventional method, and then 10^5 to 10^6 cells per sample (cell suspension) was aliquoted. Each of the sample was centrifuged to remove the supernatant. Subsequently, 2-NBDG (Wako Pure Chemical Industries, Ltd.; at the final concentration given in Table 3 or 4) dissolved in Dulbecco's PBS (−) was added thereto, and the cells were suspended well. After the reaction, Dulbecco's PBS (−) was added to the mixture, and the resultant was centrifuged to remove the supernatant. The cells were resuspended with Dulbecco's PBS (−) and centrifuged, and the supernatant was removed again. The steps of resuspending cells with Dulbecco's PBS (−), centrifuging and removing the supernatant were then repeated 2 to 3 times, thereby washing the cells thoroughly. The cells were resuspended with Dulbecco's PBS (−), the concentration thereof was adjusted, and then added dropwise to a 384-well plate. The plate was centrifuged to spin down the cells. The image was captured with a fluorescence microscope (Nikon Corp.) using B-2A filter combination (Nikon Corp.). The B-2A set covers the following wavelengths. EX (excitation wavelength): 475±15 nm, DM: 505 nm or longer, BA (fluorescence wavelength) 520 nm or longer.
(§2) The acquired images were analyzed using an image analysis software NIS-ELEMENTS (trade name, Nikon Corp.) to evaluate the fluorescence intensity of the cell.
(§3) In a manner similar to Example 2, each of human breast adenocarcinoma cells (cell line name: MCF-7; DS Pharma Biomedical Co., Ltd.), human colon adenocarcinoma cells (cell line name: SW620; DS Pharma Biomedical Co., Ltd.), human prostate cancer cells (cell line name: PC3; DS Pharma Biomedical Co., Ltd.), human alveolar epithelial cancer cells (cell line name: NCI-H358; DS Pharma Biomedical Co., Ltd.), human gastric cancer cells (cell line name: SNU-1; ATCC) and human fibrosarcoma cells (cell line name: HT1080; DS Pharma Biomedical Co., Ltd.) was detected with the labeled sugar (2-NBDG).

[2] = test system: human breast adenocarcinoma cells (MCF-7); experiment: as above; conditions: hemolyzed, 10 mM, 5 min, 23° C., threshold value 330
Description: as §1, §2, §3

[3] = test system: human colon adenocarcinoma cells (SW620); experiment: as above; conditions: threshold value 280
Description: as §1, §2, §3

[4] = test system: human alveolar epithelial cancer cells (NCI-H358); experiment: as above; conditions: hemolyzed, 10 mM, 5 min, 23° C., threshold value 370
Description: as §1, §2, §3

[5] = test system: human fibrosarcoma cell line HT1080; experiment: as above; conditions: for Positive rate (Cancer cells): Fibrosarcoma, threshold value 370; for Positive rate of cancer cells: fibrosarcoma cell line
Excerpt: (§4) In accordance with the conventional method, cultured human fibrosarcoma cell line HT1080 (DS Pharma Biomedical Co., Ltd.) was harvested with trypsin (Invitrogen). The human gastric cancer cell line SNU-1 (ATCC), which is a suspension cell line, was directly harvested without any trypsin treatment. The cell suspension of the harvested cancer cells was centrifuged, and the supernatant was removed. The cells were resuspended with Dulbecco's PBS (−) (Nissui Pharmaceutical Co., Ltd.) and centrifuged, and the supernatant was removed again.
When performing the hemolyzing treatment, the blood cell fraction collected as described above was hemolyzed using ammonium chloride (STEMCELL Technologies) according to the manufacture's manuals.
as §1
(§5) The acquired images were analyzed using an image analysis software NIS-ELEMENTS (trade name, Nikon Corp.) to evaluate the fluorescence intensity of the cell. […]
as §3

[6] = test system: human gastric cancer cells (SNU-1); experiment: as above; conditions: threshold value 490
Excerpt: as §4
The number of the cells was counted for each cell line using a hemacytometer in accordance with the conventional method, and then 10^5 to 10^6 cells per sample (cell suspension) was aliquoted. Each of the sample was centrifuged to remove the supernatant. Subsequently, 2-NBDG (Wako Pure Chemical Industries, Ltd.; at the final concentration given in Table 3 or 4) dissolved in Dulbecco's PBS (−) was added thereto, and the cells were suspended well. […] The image was captured with a fluorescence microscope (Nikon Corp.) using B-2A filter combination (Nikon Corp.). […] EX (excitation wavelength): 475±15 nm, DM: 505 nm or longer, BA (fluorescence wavelength) 520 nm or longer.
as §5

[7] = test system: human fibrosarcoma cell HT-1080; experiment: Aminolevulinic acid labeling with or without iron ion and reducing agent (positive rate); conditions: 0.3 mM, 37° C., 60 min
Excerpt: In accordance with the conventional method, human fibrosarcoma cell HT-1080 (DS Pharma Biomedical Co., Ltd.) and normal human dermal fibroblast cell NHDF (Lonza) in culture were harvested with trypsin (Invitrogen). The cell suspension of the harvested cancer cells was centrifuged, and the supernatant was removed. The cells were then resuspended with Dulbecco's PBS (+) (Nissui Pharmaceutical Co., Ltd.) and centrifuged, and the supernatant was removed again.
The number of the cells was counted using a hemacytometer in accordance with the conventional method, and then 10^5 to 10^6 cells per sample (cell suspension) was aliquoted. The sample was centrifuged to remove the supernatant. In the case an iron ion and a reducing agent were added, 0.3 mM of aminolevulinic acid (trade name: 5-AMINOLEVULINATE HYDROCHLORIDE, Cosmo Bio Co., Ltd.), 0.3 mM of FeCl2 and 0.3 mM of ascorbic acid dissolved in Dulbecco's PBS (+) were added thereto, and the cells were suspended well. In the case an iron ion and a reducing agent were not added, 0.3 mM of aminolevulinic acid dissolved in Dulbecco's PBS (+) was added singly, and the cells were suspended well. Each of the mixture was then allowed to react at 37° C. for 60 minutes. […]
The fluorescence filter set: EX (excitation wavelength) 402±7.5, DM 430 or longer, BA (fluorescence wavelength) 625±15.

[8] = hemolyzed, 10 mM, 5 min, 23° C.
[9] = single, Glucose conc.: 1 mM, Temp.: 37° C., Time: 30 min

SMILES: O=[N+]([O-])c1ccc(N[C@H]2C(O)O[C@H](CO)[C@@H](O)[C@@H]2O)c2nonc12 (stereo partly drawn) [2-NBDG, 2-[N-(7-nitrobenz-2-oxa-1,3-diazol-4-yl)amino]-2-deoxy-D-glucose]
- Positive rate (Cancer cells) [1]: 69.8%
- Positive rate (Cancer cells) [2]: 100.0%
- Positive rate (Cancer cells) [3, 8]: 100.0%
- Positive rate (Cancer cells) [3, 9]: 100.0%
- Positive rate (Cancer cells) [4]: 83.0%
- Positive rate (Cancer cells) [5, 8]: 100.0%
- Positive rate (Cancer cells) [5, 9]: 100.0%
- Positive rate of cancer cells ([5]; Mean luminance, hemolyzed, 10 mM, 5 min, 23° C., threshold value 436): 100.0%
- Positive rate of cancer cells ([5]; Total luminance, hemolyzed, 10 mM, 5 min, 23° C., threshold value 35,000): 90.7%
- Positive rate (Fibrosarcoma cell line) [5, 8]: 100.0%
- Positive rate (HT1080 cells) ([5]; hemolyzed, 0.1 mM, 37° C., 30 min, threshold value 380): 33.3%
- Positive rate (HT1080 cells) ([5]; hemolyzed, 1 mM, 37° C., 30 min, threshold value 520): 73.1%
- Positive rate (HT1080 cells) ([5]; hemolyzed, 10 mM, 37° C., 30 min, threshold value 1150): 95.0%
- Positive rate (HT1080 cells) ([5]; hemolyzed, 4° C., 10 mM, 5 min, threshold value 640): 79.0%
- Positive rate (HT1080 cells) ([5]; hemolyzed, 23° C., 10 mM, 5 min, threshold value 640): 81.1%
- Positive rate (HT1080 cells) ([5]; hemolyzed, 37° C., 10 mM, 5 min, threshold value 750): 89.4%
- Positive rate (HT1080 cells) ([5]; hemolyzed, 5 min, 10 mM, 37° C., threshold value 570): 119.8%
- Positive rate (HT1080 cells) ([5]; hemolyzed, 30 min, 10 mM, 37° C., threshold value 880): 107.8%
- Positive rate (HT1080 cells) ([5]; hemolyzed, 60 min, 10 mM, 37° C., threshold value 750): 102.9%
- Positive rate (Fibrosarcoma cell line) ([5]; not hemolyzed, 10 mM, 5 min, 23° C.): 92.6%
- Positive rate (HT1080 cells) ([5]; without hemolyzing treatment, 0.1 mM, 37° C., 30 min, threshold value 280): 51.8%
- Positive rate (HT1080 cells) ([5]; without hemolyzing treatment, 1 mM, 37° C., 30 min, threshold value 330): 89.5%
- Positive rate (HT1080 cells) ([5]; without hemolyzing treatment, 10 mM, 37° C., 30 min, threshold value 450 (concentration series)): 90.0%
- Positive rate (HT1080 cells) ([5]; without hemolyzing treatment, 4° C., 10 mM, 5 min, threshold value 310): 94.9%
- Positive rate (HT1080 cells) ([5]; without hemolyzing treatment, 23° C., 10 mM, 5 min, threshold value 360): 92.6%
- Positive rate (HT1080 cells) ([5]; without hemolyzing treatment, 37° C., 10 mM, 5 min, threshold value 390): 101.5%
- Positive rate (HT1080 cells) ([5]; without hemolyzing treatment, 5 min, 10 mM, 37° C., threshold value 380): 92.6%
- Positive rate (HT1080 cells) ([5]; without hemolyzing treatment, 30 min, 10 mM, 37° C., threshold value 450 (time series)): 97.1%
- Positive rate (HT1080 cells) ([5]; without hemolyzing treatment, 60 min, 10 mM, 37° C., threshold value 500): 98.4%
- Positive rate (Cancer cells) [6, 8]: 50.0%
- Positive rate (Cancer cells) [6, 9]: 50.0%

SMILES: NCC(=O)CCC(=O)O [aminolevulinic acid, 5-amino-4-oxopentanoic acid]
- Positive rate (Fibroblast sarcoma cell (HT-1080)) ([7]; Ascorbic acid 0, FeC12 0): 97.3%
- Positive rate (Fibroblast sarcoma cell (HT-1080)) ([7]; Ascorbic acid 0.3 mM, FeC12 0.3 mM): 79.3%
